Active and inactive are the calls of the source. The rule behind the calls is not given here.
What was measured:
PANC-1 [1] = assay: Induction of apoptosis in human PANC1 cells assessed as early apoptotic cells at 5 nM and photoirradiated at 7.2 J/cm2 measured after 6 to 24 hrs in presence of NAC by annexin-V-propidium iodide staining based FACScalibur flow cytometry analysis (reference value: 3.1 %); type: functional
PANC-1 [2] = assay: Induction of apoptosis in human PANC1 cells assessed as late apoptotic cells at 5 nM and photoirradiated at 7.2 J/cm2 measured after 6 to 24 hrs by annexin-V-propidium iodide staining based FACScalibur flow cytometry analysis (reference value: 2.7 %); type: functional
[3] = Aggregation property of compound at > 40 degree C; type: physicochemical
[4] = target: GTPase KRas (Homo sapiens) (UniProt P01116); assay: Inhibition of KRAS in human PANC1 cells assessed as downregulation of KRAS expression at 15 nM after 4 hrs by Western blot analysis; type: cell-based
Quadruplex DNA [5] = assay: Binding affinity to human KRAS utr-z RNA g-quadruplex assessed as compound-RNA complex stoichiometry ratio of 6:1 by Job's plot analysis; type: nucleic-acid assay
[6] = target: GTPase KRas (Homo sapiens) (UniProt P01116); assay: Inhibition of KRAS in human PANC1 cells assessed as downregulation of KRAS expression at 15 nM followed by 7.2 J/cm2 irradiation after 4 hrs by Western blot analysis (reference value: 5 %); type: cell-based
PANC-1 [7] = assay: Induction of apoptosis in human PANC1 cells assessed as cleavage of caspase 3 when photoirradiated at 7.2 J/cm2 by Western blot analysis; type: functional, cell-based
PANC-1 [8] = assay: Induction of apoptosis in human PANC1 cells assessed as necrotic cells at 5 nM and photoirradiated at 7.2 J/cm2 measured after 6 to 24 hrs by annexin-V-propidium iodide staining based FACScalibur flow cytometry analysis (reference value: 0.7 %); type: functional
PANC-1 [9] = assay: Induction of apoptosis in human PANC1 cells assessed as viable cells at 5 nM and photoirradiated at 7.2 J/cm2 measured after 6 to 24 hrs in presence of NAC by annexin-V-propidium iodide staining based FACScalibur flow cytometry analysis (reference value: 94.5 %); type: functional; conditions: PANC-1, light or radiation study, read-out: Activity
PANC-1 [10] = assay: Induction of apoptosis in human PANC1 cells assessed as early apoptotic cells at 15 nM and photoirradiated at 7.2 J/cm2 measured after 6 to 24 hrs in presence of NAC by annexin-V-propidium iodide staining based FACScalibur flow cytometry analysis (reference value: 3.1 %); type: functional
PANC-1 [11] = assay: Induction of apoptosis in human PANC1 cells assessed as late apoptotic cells at 10 nM and photoirradiated at 7.2 J/cm2 measured after 6 to 24 hrs by annexin-V-propidium iodide staining based FACScalibur flow cytometry analysis (reference value: 2.7 %); type: functional
PANC-1 [12] = assay: Induction of apoptosis in human PANC1 cells assessed as necrotic cells at 15 nM and photoirradiated at 7.2 J/cm2 measured after 6 to 24 hrs by annexin-V-propidium iodide staining based FACScalibur flow cytometry analysis (reference value: 0.7 %); type: functional
Quadruplex DNA [13] = assay: Binding affinity to human KRAS utr-z RNA g-quadruplex assessed as emission spectra at absorbance 650 to 715 nm 1 uM by fluorescence titration method; type: nucleic-acid assay
PANC-1 [14] = assay: Induction of apoptosis in human PANC1 cells assessed as late apoptotic cells at 15 nM and photoirradiated at 7.2 J/cm2 measured after 6 to 24 hrs by annexin-V-propidium iodide staining based FACScalibur flow cytometry analysis (reference value: 2.7 %); type: functional
[15] = Drug localization in cytoplasm of human PANC1 cells at 5 uM after 6 hrs by Hoechst staining based confocal microscopy; type: ADME, subcellular; conditions: panc-1, 6 h
[16] = Drug uptake in human HEK293 cells at 5 uM and 4 degree C after 16 hrs by FACS analysis relative to 37 degree C; type: ADME, cell-based; conditions: hek293, 16 h
[17] = Drug uptake in human PANC1 cells in presence of dynamin-inhibitor dynasore; type: ADME, cell-based; conditions: panc-1
Quadruplex DNA [18] = assay: Binding affinity to human KRAS utr-c RNA g-quadruplex by fluorescence spectroscopy; type: nucleic-acid assay
PANC-1 [19] = assay: Induction of apoptosis in human PANC1 cells assessed as cleavage of caspase 7 when photoirradiated at 7.2 J/cm2 by Western blot analysis; type: functional, cell-based
[20] = target: GTPase NRas (Homo sapiens) (UniProt P01111); assay: Inhibition of NRAS in human PANC1 cells assessed as downregulation of NRAS expression at 15 nM followed by 7.2 J/cm2 irradiation after 4 hrs by Western blot analysis (reference value: 25 %); type: cell-based
PANC-1 [21] = assay: Induction of ROS generation in human PANC1 cells assessed as cleavage of CM-H2DCFDA to CM-H2DCF by intracellular esterase by measuring green fluorescence emission incubated for 16 hrs followed by 7.2J/cm2 photoirradiation and subsequent compound washout measured after 40 mins by CM-H2DCFDA staining-based FACSCalibur flow cytometry; type: functional, cell-based
[22] = Induction of ROS-mediated […] labelled 20-mer utr-z stem-loop RNA (unknown origin) degradation at 0.6 uM incubated for 30 mins followed by photoirradiation for 15 to 30 mins by PAGE analysis
PANC-1 [23] = assay: Induction of apoptosis in human PANC1 cells assessed as viable cells at 5 nM and photoirradiated at 7.2 J/cm2 measured after 6 to 24 hrs by annexin-V-propidium iodide staining based FACScalibur flow cytometry analysis (reference value: 91.9 %); type: functional; conditions: PANC-1, light or radiation study, read-out: Activity
PANC-1 [24] = assay: Induction of apoptosis in human PANC1 cells assessed as early apoptotic cells at 5 nM and photoirradiated at 7.2 J/cm2 measured after 6 to 24 hrs by annexin-V-propidium iodide staining based FACScalibur flow cytometry analysis (reference value: 4.6 %); type: functional
Quadruplex DNA [25] = assay: Binding affinity to human KRAS utr-z RNA g-quadruplex assessed as induction of hypochromicity at 1.6 uM by UV-vis spectrophotometry relative to control; type: nucleic-acid assay
PANC-1 [26] = assay: Induction of apoptosis in human PANC1 cells assessed as viable cells at 10 nM and photoirradiated at 7.2 J/cm2 measured after 6 to 24 hrs in presence of NAC by annexin-V-propidium iodide staining based FACScalibur flow cytometry analysis (reference value: 94.5 %); type: functional; conditions: PANC-1, light or radiation study, read-out: Activity
PANC-1 [27] = assay: Induction of apoptosis in human PANC1 cells assessed as necrotic cells at 10 nM and photoirradiated at 7.2 J/cm2 measured after 6 to 24 hrs in presence of NAC by annexin-V-propidium iodide staining based FACScalibur flow cytometry analysis (reference value: 1 %); type: functional
[28] = target: GTPase KRas (Homo sapiens) (UniProt P01116); assay: Inhibition of KRAS in human PANC1 cells assessed as decrease in KRAS mRNA level at 15 nM followed by 7.2 J/cm2 irradiation after 4 hrs by qRT-PCR analysis; type: cell-based
PANC-1 [29] = assay: Induction of apoptosis in human PANC1 cells assessed as late apoptotic cells at 15 nM and photoirradiated at 7.2 J/cm2 measured after 6 to 24 hrs in presence of NAC by annexin-V-propidium iodide staining based FACScalibur flow cytometry analysis (reference value: 1.3 %); type: functional
Quadruplex DNA [30] = assay: Induction of ROS-mediated […] labeled Ras RNA g-quadruplex (unknown origin) degradation at 0.6 uM incubated for 30 mins in presence of NAC followed by photoirradiation for 15 to 30 mins by PAGE analysis; type: nucleic-acid assay
PANC-1 [31] = assay: Cytotoxicity against human PANC1 cells assessed as reduction in metabolic activity at 20 nM after 24 to 72 hrs in dark followed by photoirradiation in presence of NADH by resazurin assay; type: functional, cell-based

Chain of GTPase KRas (Homo sapiens) (P01116 whole entry, looked up): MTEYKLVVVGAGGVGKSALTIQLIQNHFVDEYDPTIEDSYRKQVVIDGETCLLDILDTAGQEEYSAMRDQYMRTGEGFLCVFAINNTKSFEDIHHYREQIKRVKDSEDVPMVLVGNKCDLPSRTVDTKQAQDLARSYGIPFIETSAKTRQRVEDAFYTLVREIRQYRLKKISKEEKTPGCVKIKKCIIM
Chain of GTPase NRas (Homo sapiens) (P01111 whole entry): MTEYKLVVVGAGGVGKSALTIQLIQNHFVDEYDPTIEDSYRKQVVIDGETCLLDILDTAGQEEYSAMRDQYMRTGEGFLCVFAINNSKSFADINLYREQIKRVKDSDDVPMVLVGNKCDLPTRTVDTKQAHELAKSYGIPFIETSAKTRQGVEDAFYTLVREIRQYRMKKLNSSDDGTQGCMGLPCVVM

Compound: CCCCCCCCCCCCCC[n+]1ccc(-c2c3nc(c(-c4cc[n+](C)cc4)c4ccc([nH]4)c(-c4cc[n+](C)cc4)c4nc(c(-c5cc[n+](C)cc5)c5ccc2[nH]5)C=C4)C=C3)cc1.[I-].[I-].[I-].[I-]
- Activity (PANC-1 [1]): 2.4%
- Activity (PANC-1 [2]): 6.1%
- Activity [3]: Active
- inhibition [4]: inactive
- Activity (Quadruplex DNA [5]): Active
- inhibition [6]: 20%
- Activity (PANC-1 [7]): Active
- Activity (PANC-1 [8]): 0.6%
- viability at 0.005 µM (PANC-1 [9]): 95.2%
- Activity (PANC-1 [10]): 3.9%
- Activity (PANC-1 [11]): 10.9%
- Activity (PANC-1 [12]): 4.1%
- Activity (Quadruplex DNA [13]): Active
- Activity (PANC-1 [14]): 20.8%
- Drug uptake [15]: Active
- Drug uptake [16]: Active
- Drug uptake [17]: Not Active
- Kd (Quadruplex DNA [18]): 235 nM
- Activity (PANC-1 [19]): Active
- inhibition [20]: 50%
- Activity (PANC-1 [21]): Dose-dependent effect
- Activity [22]: inactive
- viability at 0.005 µM (PANC-1 [23]): 88.2%
- Activity (PANC-1 [24]): 5.1%
- Activity (Quadruplex DNA [25]): 50%
- viability at 0.01 µM (PANC-1 [26]): 90.9%
- Activity (PANC-1 [27]): 2.3%
- inhibition [28]: Active
- Activity (PANC-1 [29]): 5%
- Activity (Quadruplex DNA [30]): inactive
- Activity (PANC-1 [31]): Active
